In PMC9504842, “Comprehensive Metabolic Profiling of Euphorbiasteroid in Rats by Integrating UPLC-Q/TOF-MS and NMR as Well as Microbial Biotransformation” (Metabolites, 2022):

Experiments:
[1] = Metabolite detection in rats (plasma, urine, feces) after oral euphorbiasteroid by UPLC-Q/TOF-MS; format: in vivo, Sprague-Dawley rats; settings: single oral dose 100 mg/kg euphorbiasteroid
Protocol: For metabolite separation and detection, chromatographic analyses were performed using a Waters Acquity UPLC I-class system (Waters, Milford, MA, USA), equipped with an auto-sampler, a binary solvent delivery system, an online degasser, and a photodiode array detector. An ACQUITY UPLC® HSS T3 column (2.1 × 150 mm, 1.8 μm, Waters) protected with a HSS T3 VanGuard ™ Pre-Column 3/Pk (2.1 × 5.0 mm, 1.8 μm, Waters) was used. The optimized parameters were set as follows: the mobile phase consisted of eluent A (0.1% formic acid in water, v/v) and eluent B (acetonitrile). The flow rate was 0.3 mL/min. The column and auto-sampler temperatures were maintained at 40 °C and 4 °C, respectively. The gradient elution program was optimized as follows: 0–9 min, 30–70% B; 9–13 min, 70–90% B; 13–17 min, 90–100% B; 17–20 min, 100–100% B.
The mass spectrometry detection was performed on the SYNAPT G2-Si HDMS system, equipped with an electrospray ionization (ESI) source (Waters Corp., Manchester, UK). A positive ion mode was conducted in this analysis. Mass spectrometry conditions were finally set as follows: capillary voltage of 3.0 kV, cone voltage of 40 V, source temperature of 120 °C, and de-solvation temperature of 400 °C. Nitrogen was used as the desolvation and cone gas with a flow rate of 800 and 50 L/h, respectively, and the full-scan mass range was set as m/z 50–1500 Da. In the auto mass spectrometry mode, the collision-induced dissociation energies were set at 0 eV for the precursor ion at the low-energy mode, and the collision-induced dissociation energies were set from 2 to 10 eV for the high-energy mode. Real-time data were calibrated using an external reference (LockSpray™) at a concentration of 0.2 ng/mL with an infusion flow rate of 5 μL/min, generating a reference ion for the positive ion mode (m/z 556.2771) during the UPLC-MS analysis. Data were acquired and processed using MassLynx ™ NT 4.1 software (Waters, Milford, MA, USA).
Male Sprague-Dawley rats (200–220 g) were commercially supplied by Shanghai Sippr-BK Laboratory Animal Co., Ltd. (Shanghai, China) and were housed in a humidity- and temperature-controlled room (50 ± 10% and 22–24 °C) with a 12-h light/dark cycle. The experimental rats were allowed to access food and water ad libitum and acclimatized to the conditions mentioned above for a week, then fasted overnight but with free access to water before the experiments. Euphorbiasteroid was dissolved in soybean oil solution (containing 0.5% ethanol) to form a concentration of 10 mg/mL. A single dose of 100 mg/kg euphorbiasteroid was orally administered to rats and the same concentration of soybean oil solution (containing 0.5% ethanol) was administered as a blank control. All animal procedures were performed in accordance with the Guidelines for Care and Use of Laboratory Animals of Naval Medical University and approved by the Animal Ethics Committee of Naval Medical University.
Blood samples (0.5 mL) were collected from six rats through the orbital sinus before administration (blank sample) and 0.25, 0.5, 1, 2, 4, 6, and 12 h after administration. Plasma samples were prepared by centrifugation at 4000 rpm for 10 min. For urine and feces sampling, 12 rats were divided into an administration group and a blank group, and were placed separately in stainless steel metabolic cages. Urine and feces samples were collected in containers surrounded by ice over 0–6, 6–12, and 12–24 h after drug administration. The mixed urine samples were centrifuged at 4000 rpm for 10 min at 4 °C to obtain the supernatants, and fecal samples were left in a cool and dry place until dry. All the biological samples were frozen at −80 °C before analysis.
An aliquot of 200 µL of plasma and urine samples was put in a 1.5 mL tube, respectively. 800 µL of acetonitrile was added and vortexed for 5 min to extract metabolites. Feces samples (1.0 g) were crushed and then ultrasonically extracted with acetonitrile (10 mL) for 30 min. […]

[2] = In vitro incubation of euphorbiasteroid with rat liver microsomes, metabolite detection; format: in vitro ADME; settings: 37 °C, 1 h, NADPH regenerating system
Protocol: The microsomal incubation approach was based on previous metabolism studies published by Wintermeyer et al. and Franziska et al.. A 200 μL incubation system containing 10 μL of solution A, 2 μL of solution B, 5 μL of rat liver microsomes (20 mg/mL) and 182 μL 0.1 M PBS buffer (pH = 7.4) was constructed. The above solution was heated in a 37 °C water bath, then 1 μL of euphorbiasteroid (dissolved in DMSO solution, 10 mM) was used to start the reaction, and the mixture was then incubated at 37 °C for 1 h. The reactions were terminated by the addition of 200 μL of ice-cold acetonitrile. The mixture was then centrifuged at 13,000 rpm for 10 min, and a 2-μL aliquot of the supernatant was directly injected into the UPLC-Q-TOF-MS system.
(§1) First, the metabolites of euphorbiasteroid in rats (plasma, urine, and feces), RLMs, and C. elegans culture medium were predicted by setting the prototype components and potential biological metabolic reactions in UNIFI 4.1 software. Then, the predicted metabolites in each sample were further compared according to the characteristic mass spectrum behaviors (including parent ions, internal cleavage in the ion source, and characteristic fragment ions of each metabolite) and retention times.

[3] = system: Cunninghamella elegans bio-110930; assay: Microbial transformation of euphorbiasteroid, metabolite detection; settings: C. elegans bio-110930 culture with euphorbiasteroid
Protocol: The biotransformation process was conducted at two scales: preliminary screening and preparative. Preliminary screening scale biotransformation of euphorbiasteroid was carried out in 250 mL Erlenmeyer flasks containing 100 mL of liquid medium. The flasks were placed on a rotary shaker (160 rpm, 28 °C). A standard two-stage fermentation protocol was employed in all experiments. After 2 days of pre-culture, the substrates of 5 mg (dissolved in 0.5 mL of acetone) were added into each flask. Taking 1 mL samples on days 0, 2, 4, 7, 10, and 14, samples were centrifuged and the degree of transformation was compared to controls on TLC and HPLC, and a 2-μL aliquot of the supernatant was directly injected into the UPLC-Q-TOF-MS system. Culture controls consisted of sterile medium, in which microorganisms were grown under identical conditions without substrate. Substrate controls were composed of sterile medium and the same amount of substrate incubated under the same conditions without microorganisms.
as §1

CC(=O)OC1C2C(OC(=O)Cc3ccccc3)C(C)CC2(OC(C)=O)C(=O)C(C)=CC2C(CCC13CO3)C2(C)CO (stereo not drawn) [Compound M1, 18α-hydroxyl euphorbiasteroid]
√: Distribution Rat Faeces (metabolite detected) [1] | Distribution Rat Plasma (metabolite detected) [1] | Distribution Rat Urine (metabolite detected) [1] | Distribution RLMs (metabolite detected) [2] | Distribution Fungi (metabolite detected) [3]

CC(=O)OC1C2C(OC(=O)Cc3ccc(O)cc3)C(C)CC2(OC(C)=O)C(=O)C(C)=CC2C(CCC13CO3)C2(C)C (stereo not shown) [Compound M2, 4′-hydroxyl euphorbiasteroid]
√: Distribution Rat Faeces (metabolite detected) [1] | Distribution Rat Urine (metabolite detected) [1] | Distribution RLMs (metabolite detected) [2] | Distribution Fungi (metabolite detected) [3]

CC(=O)OC1C2C(OC(=O)C(O)c3ccccc3)C(C)CC2(OC(C)=O)C(=O)C(C)=CC2C(CCC13CO3)C2(C)C (stereo not shown) [Compound M4, 7′-hydroxyl euphorbiasteroid]
√: Distribution Rat Faeces (metabolite detected) [1] | Distribution Rat Plasma (metabolite detected) [1] | Distribution Rat Urine (metabolite detected) [1] | Distribution RLMs (metabolite detected) [2] | Distribution Fungi (metabolite detected) [3]

CC(=O)OC1C2C(OC(=O)Cc3ccccc3O)C(C)CC2(OC(C)=O)C(=O)C(C)=CC2C(CCC13CO3)C2(C)C (stereo not shown) [Compound M5, 2′-hydroxyl euphorbiasteroid]
√: Distribution Rat Faeces (metabolite detected) [1] | Distribution Rat Plasma (metabolite detected) [1] | Distribution RLMs (metabolite detected) [2] | Distribution Fungi (metabolite detected) [3]

CC(=O)OC1C2C(OC(=O)Cc3ccccc3)C(CO)CC2(OC(C)=O)C(=O)C(C)=CC2C(CCC13CO3)C2(C)C (stereo not shown) [Compound M6]
√: Distribution Rat Faeces (metabolite detected) [1] | Distribution Rat Plasma (metabolite detected) [1] | Distribution RLMs (metabolite detected) [2]

CC(=O)OC1C2C(OC(=O)Cc3ccccc3O)C(C)CC2(OC(C)=O)C(=O)C(C)=CC2C(CCC13CO3)C2(C)CO (stereo not drawn) [Compound M8, 18α,2′-dihydroxyl euphorbiasteroid]
√: Distribution Rat Faeces (metabolite detected) [1] | Distribution Rat Plasma (metabolite detected) [1] | Distribution Rat Urine (metabolite detected) [1] | Distribution RLMs (metabolite detected) [2] | Distribution Fungi (metabolite detected) [3]

CC(=O)OC1C2C(OC(=O)CC3=CC=CC(O)C3O)C(C)CC2(OC(C)=O)C(=O)C(C)=CC2C(CCC13CO3)C2(C)C (stereo not shown) [Compound M12, 5′,6′-dihydroxyl dihydroeuphorbiasteroid]
√: Distribution Rat Faeces (metabolite detected) [1] | Distribution Rat Plasma (metabolite detected) [1] | Distribution RLMs (metabolite detected) [2] | Distribution Fungi (metabolite detected) [3]

CC(=O)OC1C2C(OC(=O)CC3=CC(O)C(O)C=C3)C(C)CC2(OC(C)=O)C(=O)C(C)=CC2C(CCC13CO3)C2(C)C (stereo not shown) [Compound M13, 3′,4′-dihydroxyl dihydroeuphorbiasteroid]
√: Distribution Rat Faeces (metabolite detected) [1] | Distribution Rat Plasma (metabolite detected) [1] | Distribution RLMs (metabolite detected) [2] | Distribution Fungi (metabolite detected) [3]

CC(=O)OC1C2C(OC(=O)Cc3ccccc3)C(C=O)CC2(OC(C)=O)C(=O)C(C)=CC2C(CCC13CO3)C2(C)C (stereo not shown) [Compound M14]
√: Distribution Rat Faeces (metabolite detected) [1] | Distribution Rat Plasma (metabolite detected) [1] | Distribution Rat Urine (metabolite detected) [1] | Distribution Fungi (metabolite detected) [3]

CC(=O)OC1C2C(OC(=O)Cc3ccccc3)C(C=O)CC2(OC(C)=O)C(=O)C(C)=CC2C(CCC13CO3)C2(C)C (stereo not shown) [Compound M15]
√: Distribution Rat Faeces (metabolite detected) [1] | Distribution Rat Plasma (metabolite detected) [1] | Distribution Rat Urine (metabolite detected) [1]

CC(=O)OC1C2C(OC(=O)Cc3ccccc3)C(C)CC2(OC(C)=O)C(=O)C(C)=CC2C(CCC13CO3)C2(C)C(=O)O (stereo not drawn) [Compound M16, 18α-carboxyl euphorbiasteroid]
√: Distribution Rat Faeces (metabolite detected) [1] | Distribution Rat Plasma (metabolite detected) [1] | Distribution Rat Urine (metabolite detected) [1] | Distribution RLMs (metabolite detected) [2] | Distribution Fungi (metabolite detected) [3]

CC(=O)OC1C2C(OC(=O)Cc3ccccc3)C(C(=O)O)CC2(OC(C)=O)C(=O)C(C)=CC2C(CCC13CO3)C2(C)C (stereo not shown) [Compound M17]
√: Distribution Rat Faeces (metabolite detected) [1] | Distribution Rat Plasma (metabolite detected) [1] | Distribution RLMs (metabolite detected) [2] | Distribution Fungi (metabolite detected) [3]

CC(=O)O[C@H]1[C@H]2[C@@H](OC(=O)Cc3ccccc3O[C@@H]3O[C@H](CO)[C@@H](O)[C@H](O)[C@H]3O)[C@@H](C)C[C@]2(OC(C)=O)C(=O)/C(C)=C/C2C(CC[C@@]13CO3)C2(C)C (stereo partly shown) [Compound M28]
√: Distribution Rat Faeces (metabolite detected) [1]

euphorbiasteroid 2′-O-β-D-glucopyranoside [Compound M29]
√: Distribution Fungi (metabolite detected) [3]
